This is an account of results in publication PMC10907753 (Communications Biology, 2024).

For assay [1], the system named is Xcc ΔNamptΔNads (XC_0719 and XC_1067 double deletion mutant). It counts as cell-based, Xanthomonas campestris pv. campestris. The settings on record: 0.1 mM supplement, 28 °C. The method, then: The bacterium Xcc was grown in NYG medium at 28 °C and shaked at 200 rpm for 16–18 h. Once the cells had grown to a point where OD600 reached 1.0, they were harvested via centrifugation and washed twice with MMX medium. Following this, a volume of 0.1 ml of the cell suspension was added to 5 ml of fresh MMX medium. […] The culture was grown at 28 °C and the OD600 values were measured every 12 h. The experiments were repeated at least three times to ensure consistency.

Assay [2] concerns the target T1, Xcc NAMPT (Xanthomonas campestris pv. campestris, UniProt A0A0H2X5R2). The assay is described as follows: biochemical.
Assay [3] deals with T1, Xcc NAMPT. The experiment in a line: Determination of IC50 value for FK866. The assay is classed as biochemical.
In assay [4] the target is T2, human NAMPT (Homo sapiens, UniProt P43490). To be noted: NAMPT activators; cited from earlier work.
For assay [5], the target named is T2, human NAMPT. The experiment in a line: NAMPT enzyme activity, fluorometric NMN assay (kinetic constants). It counts as biochemical. To be noted: 30 nM human NAMPT, PRPP 3 to 50 μM. The method, then: To determine the kinetic parameters of human NAMPT, a concentration of 30 nM His-tagged human NAMPT was used. […] The remaining conditions were kept the same as those employed in the Xcc NAMPT reaction system.
(§1) The enzymatic reactions were carried out for 15 min at 37 °C, and the quantification of NMN was achieved using the fluorescence method. Briefly, the sample containing NMN (25 μl) was mixed with 10 μl of 20% acetophenone (200 μl acetophenone dissolved in 800 μl DMSO) and 10 μl of 2 M KOH. The mixture was then incubated on ice for 10 minutes before adding 45 μl of 100% formic acid. The resulting mixture was incubated at 37 °C for 15 min. Samples (40 μl) were then transferred to a 384-well plate, and fluorescence intensity was measured using the Victor Nivo Multimode plate reader (Perkin Elmer), with excitation and emission wavelengths set at 355/40 and 435/20 nm, respectively.
(§2) The kinetic data was analyzed using Graphpad Prism 8. To determine the hill coefficients, substrate-velocity curves were analyzed by nonlinear regression with an allosteric sigmoidal model using the equation v = Vmax S^h/(Km^h + S^h).

The target of assay [6] is Xcc NAMPT H175F-I224F-V291F-I332F quadruple mutant (Xanthomonas campestris pv. campestris, UniProt A0A0H2X5R2, H175F/I224F/I332F/V291F). The assay is classed as biochemical. The settings on record: for kcat / Km: 3.5 nM quadruple mutant. The method, then:
(§3) To ensure the reliability of the results, all assays were performed multiple times. NAMPT enzyme activity was assessed using a chemical approach that converted NMN into a fluorescent derivative, in accordance with established protocols[15],[30].
as §1
The kinetic data was analyzed using Graphpad Prism 8. To determine the hill coefficients, substrate-velocity curves were analyzed by nonlinear regression with an allosteric sigmoidal model using the equation v = Vmax S^h/(Km^h + S^h). […]
mutant. c-d Michaelis–Menten plots for the tunnel-blocked quadruple mutant of Xcc […]
To determine the kinetic parameters of quadruple mutant, a concentration of 3.5 nM mutant was used. […]

Assay [7] has as its target T1, Xcc NAMPT. The experiment in a line: NAMPT enzyme activity, fluorometric NMN assay (kinetic constants). The assay is classed as biochemical. The method, then:
as §3, §1
Correspondingly, the additions of 20% acetophenone, 2 M KOH, and 100% formic acid were adjusted proportionally. The resulting final samples (120 μl) were transferred to 96-well plates, and the fluorescence values were measured following the same procedure as described earlier.
as §2

The target in assay [8] is T2, human NAMPT. To be noted: human NAMPT for NAM; cited from earlier work.
Assay [9] deals with T1, Xcc NAMPT. To be noted: read-out: Kd2; ITC, 25 mM NAM into 30 μM NAMPT, sequential binding sites model, second site.
For assay [10], the target named is R373A+R180A mutant pair of Xcc NAMPT (Xanthomonas campestris pv. campestris, UniProt A0A0H2X5R2, R180A/R373A). The assay is described as follows: NAMPT enzyme activity, fluorometric NMN assay (kinetic constants). It counts as biochemical. The method, then: as §1
. Correspondingly, the additions of 20% acetophenone, 2 M KOH, and 100% formic acid were adjusted proportionally. The resulting final samples (120 μl) were transferred to 96-well plates, and the fluorescence values were measured following the same procedure as described earlier.
as §2
Fig. S9 Substrate-velocity curve for the R373A+R180A mutant pair of Xcc
of 0.3 nM mutant pair was used.
μM. The error bars depicted on the plot indicate the standard deviation of
measurements taken from three replicates.

Assay [11] has as its target Xcc NAMPT with ATP pretreatment (Xanthomonas campestris pv. campestris, UniProt A0A0H2X5R2). To be noted: ITC after ATP treatment, sequential binding. The method, then:
Proteins pretreated with ATP were prepared by incubating 1 μM protein and 1 mM ATP at 25 °C for 30 min. […] The ATP was subsequently removed by gel filtration using the Superdex 200 Increase 10/300 GL column. The final concentrations of proteins were measured by Nanodrop.
figure presented is a representative sample from three separate experiments. A
sequential binding sites model was used to fit the binding curves, yielding the
dissociation constant (Kd) and the stoichiometry (N) of the binding reaction.
(1 picture or pasted object on this page, not shown here)

Setting [12] is: FK866 0.4 nM, E=0.4 nM, replicates.
Where [13] appears, read: substrate of Xcc NAMPT, 37 °C, Michaelis-Menten fit.
The mark [14] stands for this setting: 0.3 nM mutant pair, NAM 0.1 to 4 μM.

Several values for one entry are separate records, joined by “and”; a condition that tells them apart may be missing. Identical values can stand only once. Like-named read-outs stand apart in the source and are kept apart here.

T2 sequence (P43490 whole entry): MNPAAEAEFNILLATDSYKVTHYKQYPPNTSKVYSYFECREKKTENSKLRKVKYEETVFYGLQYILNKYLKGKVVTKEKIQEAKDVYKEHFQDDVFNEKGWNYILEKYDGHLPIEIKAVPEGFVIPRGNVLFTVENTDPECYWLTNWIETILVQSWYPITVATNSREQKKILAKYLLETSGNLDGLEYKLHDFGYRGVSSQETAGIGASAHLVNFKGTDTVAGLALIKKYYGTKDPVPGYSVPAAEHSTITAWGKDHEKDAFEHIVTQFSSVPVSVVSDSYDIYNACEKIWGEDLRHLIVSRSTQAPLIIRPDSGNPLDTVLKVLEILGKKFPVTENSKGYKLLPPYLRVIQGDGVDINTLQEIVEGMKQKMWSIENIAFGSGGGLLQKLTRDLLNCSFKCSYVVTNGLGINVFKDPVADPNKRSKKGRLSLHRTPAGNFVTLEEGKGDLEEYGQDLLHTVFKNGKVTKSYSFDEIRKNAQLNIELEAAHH

`NC(=O)c1ccc[n+]([C@@H]2O[C@H](COP(=O)([O-])OP(=O)(O)OC[C@H]3O[C@@H](n4cnc5c(N)ncnc54)[C@H](O)[C@@H]3O)[C@@H](O)[C@H]2O)c1` [NAD+, nicotinamide adenine dinucleotide]: in assay [1], the “growth of ΔNamptΔNads in MMX with supplement” value (from here on “growth of ΔNamptΔNads in MMX”) is on record as “able to grow”.
Same read-out and setting: as for `NC(=O)c1ccc[n+]([C@@H]2O[C@H](CO)[C@@H](O)[C@H]2O)c1` [NmR, nicotinamide riboside], the entry is “did not grow”.
For `O=C(/C=C/c1cccnc1)NCCCCC1CCN(C(=O)c2ccccc2)CC1` [FK866], the Kd at Xcc NAMPT [2] worked out at 0.0822 µM. Besides, the IC50 on Xcc NAMPT [3] came out at 0.00023 µM. Besides, the Activity % is 99.2204% and 100.986% and 94.6063% and 98.6899% at Xcc NAMPT [3] (FK866 0.02 nM, E=0.4 nM, replicates); 101.785% and 102.935% and 85.505% and 97.238% at Xcc NAMPT [3] (FK866 0.04 nM, E=0.4 nM, replicates); 78.2474% and 70.3189% and 72.1819% and 76.3149% on Xcc NAMPT [3] (FK866 0.1 nM, E=0.4 nM, replicates); 62.8959% and 69.0568% and 55.7537% and 65.4354% at Xcc NAMPT [3] (FK866 0.2 nM, E=0.4 nM, replicates); 17.7119% and 13.8804% and 14.6162% on Xcc NAMPT [3] (setting [12]); 4.02% and 4.725% and 5.923% and 4.615% at Xcc NAMPT [3] (FK866 1 nM, E=0.4 nM, replicates). Further, on Xcc NAMPT [3] (FK866 2 nM, E=0.4 nM, replicates), the Activity % is 1.856% and 4.769% and 2.139% and 3.338%. Further, the activity at 0.0004 µM on Xcc NAMPT [3] (setting [12]) came out at 14.2%.
With `O=C(NCc1ccncc1)Nc1ccc(S(=O)(=O)N2CC3CCC(C2)O3)cc1` [SBI-797812], at human NAMPT [4], the “effect on the enzymatic activity of human NAMPT” value is “almost double”.
As to `O=P(O)(O)OC[C@H]1O[C@H](OP(=O)(O)OP(=O)(O)O)[C@H](O)[C@@H]1O` [PRPP], the kcat was found to be 0.045 ± 0.001 s⁻¹ at human NAMPT [5], 0.44 ± 0.01 s⁻¹ in [6] and 6.99 ± 0.56 s⁻¹ on Xcc NAMPT [7] (setting [13]). For the same molecule, the Km on human NAMPT [5] (2.5 mM ATP, 10 μM NAM) was 5.41 ± 0.58 µM; in assay [6] (read-out: Km), 9.56 ± 1.14 µM; at Xcc NAMPT [7] (setting [13]) it was 24.4 ± 6.26 µM. Further, the “fold decrease in Km” value in assay [6] (quadruple mutant vs wild-type) is listed as 2.55 fold. In addition, the “fold decrease in catalytic efficiency” value in assay [6] (quadruple mutant vs wild-type) is listed as “about 5.80 fold”. Also, the “fold decrease in kcat” value in [6] (quadruple mutant vs wild-type) amounted to 15.89 fold.
Consider `O=C(O)c1cccnc1` [NA, nicotinic acid], for which the “growth of ΔNamptΔNads in MMX” value in assay [1] is listed as “did not grow”.
Take `NC(=O)c1cccnc1` [NAM, nicotinamide]: the figures for the Km (on human NAMPT [8]; in assay [6]; in [10] (setting [14])) were 0.005 ± 0.002 µM, 7.33 ± 0.66 µM and 0.08 ± 0.01 µM, respectively. Besides, the Kd at Xcc NAMPT [9] was 21000 µM; at Xcc NAMPT [2], 1410 µM; in [11] (read-out: Kd (first binding site)) it was 330 µM; in assay [11] (read-out: Kd (second binding site)), 2990 µM. Moreover, the “growth of ΔNamptΔNads in MMX” value in assay [1] is on record as “did not grow”. Also, the kcat was found to be 0.55 ± 0.02 s⁻¹ in [6] and 0.188 ± 0.005 s⁻¹ in [10] (setting [14]). For the same molecule, the hill coefficient is listed as 1.00 in assay [6] (NAM, quadruple mutant) and ~ 1.98 at Xcc NAMPT [7] (NAM substrate-velocity curve, allosteric sigmoidal model). Further, the “hill coefficient (H)” value in assay [10] (mutant pair, NAM) is 1.64 ± 0.32 and 1.64.
With `Nc1ncnc2c1ncn2[C@@H]1O[C@H](COP(=O)(O)OP(=O)(O)OP(=O)(O)O)[C@@H](O)[C@H]1O` [ATP], on Xcc NAMPT [7], the Km came to 560 ± 60 µM. The kcat at Xcc NAMPT [7] (setting [13]) was 4.40 ± 0.16 s⁻¹.

Broadly, the IC50 is the midpoint of a concentration-inhibition curve. A higher IC50 goes with lower potency. By kcat is commonly meant the number of substrate molecules converted per active site and unit of time at saturation. By Km is commonly meant the concentration of substrate that gives half-maximal velocity.
